Literature values in patent publication US20090186081A1, “Disintegrating Loadable Tablets” (LifeCycle Pharma A/S, priority 2006, published 2009).
Counter-ions that a name gives are not always drawn. Like-named read-outs stand apart in the source and are kept apart here.

Columns and labels:
[1] = not given; remark: listed apart in the source
[2] = Table 1, Poorly-Soluble Drug Candidates
[3] = Table 2, Poorly-Soluble Drugs with Low Bioavailability

| Structure (SMILES) | Solubility In Water [2] | Solubility In Water [3] | also measured |
| --- | --- | --- | --- |
| Cc1nnc2n1-c1ccc(Cl)cc1C(c1ccccc1)=NC2 [Alprazolam] | Insoluble | – | – |
| COc1ccc(CCN2CCC(Nc3nc4ccccc4n3Cc3ccc(F)cc3)CC2)cc1 [Astemizole] | Insoluble | Insoluble | Bioavailability ([1]; in words): Low-moderate |
| CC(=O)OC[C@H]1O[C@@H]([S-])[C@H](OC(C)=O)[C@@H](OC(C)=O)[C@@H]1OC(C)=O.CCP(CC)CC.[Au+] [Auranofin] | – | Slightly soluble | Bioavailability ([1]; in vivo): Low (15-25%) |
| CN1CCCC(n2nc(Cc3ccc(Cl)cc3)c3ccccc3c2=O)CC1 (stereo not shown) [Azelastine] | Insoluble | – | – |
| OC(CCN1CCCCC1)(c1ccccc1)C1CC2C=CC1C2 (stereo not shown) [Biperiden] | – | Sparingly soluble | – |
| C=CCC1(CC(C)C)C(=O)NC(=O)NC1=O [Butalbital] | Insoluble | – | – |
| NC(=O)N1c2ccccc2C=Cc2ccccc21 [Carbamazepine] | Insoluble | – | – |
| C[C@@](Cc1ccc(O)c(O)c1)(NN)C(=O)O [Carbidopa] | Slightly | – | – |
| CO/N=C(\C(=O)N[C@@H]1C(=O)N2C(C(=O)O)=C(COC(C)=O)CS[C@H]12)c1csc(N)n1 [Cefotaxime] | Sparingly | – | – |
| CN1CCC[C@@H]1CCO[C@](C)(c1ccccc1)c1ccc(Cl)cc1 [Clemastine fumarate] | – | Slightly soluble | – |
| CN1CCN(C2=Nc3cc(Cl)ccc3Nc3ccccc32)CC1 [Clozapine] | Slightly | – | – |
| CC1CC(OC(=O)C(O)c2ccccc2)CC(C)(C)C1 (stereo not shown) [Cyclandelate] | – | Insoluble | Bioavailability ([1]; in words): Low |
| C#C[C@]1(O)CC[C@H]2[C@@H]3CCC4=Cc5oncc5C[C@]4(C)[C@H]3CC[C@@]21C [Danazol] | – | – | Bioavailability ([1]; in words): Low |
| OCCN(CCO)c1nc(N2CCCCC2)c2nc(N(CCO)CCO)nc(N3CCCCC3)c2n1 [Dipyridamole] | Slightly | – | – |
| CC(CCc1ccc(O)cc1)NCCc1ccc(O)c(O)c1 (stereo not shown) [Dobutamine] | Sparingly | – | – |
| COc1cc2nc(N3CCN(C(=O)C4COc5ccccc5O4)CC3)nc(N)c2cc1OC (stereo not shown) [Doxazosin] | Slightly | – | – |
| CCCCCc1cc(O)c2c(c1)OC(C)(C)[C@@H]1CCC(C)=C[C@@H]21 [Dronabinol] | – | Insoluble | Bioavailability ([1]; in vivo): Low 10-20%) |
| CCOC(=O)[C@H](CCc1ccccc1)N[C@@H](C)C(=O)N1CCC[C@H]1C(=O)O [Enalapril] | Sparingly | – | – |
| CCc1cccc2c3c([nH]c12)C(CC)(CC(=O)O)OCC3 (stereo not shown) [Etodolac] | Insoluble | – | – |
| COc1cc([C@@H]2c3cc4c(cc3[C@@H](O[C@@H]3O[C@@H]5CO[C@@H](C)O[C@H]5[C@H](O)[C@H]3O)[C@H]3COC(=O)[C@H]23)OCO4)cc(OC)c1O [Etoposide] | Very Slightly | – | – |
| NC(N)=Nc1nc(CSCCC(N)=NS(N)(=O)=O)cs1 [Famotidine] | Slightly | Slightly soluble | – |
| CCOC(=O)C1=C(C)NC(C)=C(C(=O)OC)C1c1cccc(Cl)c1Cl (stereo not shown) [Felodipine] | Insoluble | Insoluble | – |
| CC(C)(C)NC(=O)[C@H]1CC[C@H]2[C@@H]3CC[C@H]4NC(=O)C=C[C@]4(C)[C@H]3CC[C@]12C [Finasteride] | Insoluble | – | – |
| OC(Cn1cncn1)(Cn1cncn1)c1ccc(F)cc1F [Fluconazole] | Slightly | – | – |
| OCCN1CCN(CCCN2c3ccccc3Sc3ccc(C(F)(F)F)cc32)CC1 [Fluphenazine] | – | Insoluble | – |

| Structure (SMILES) | Solubility In Water [2] | Solubility In Water [3] | also measured |
| --- | --- | --- | --- |
| CC(C(=O)O)c1ccc(-c2ccccc2)c(F)c1 (stereo not shown) [Flurbiprofen] | Slightly | – | – |
| COCCCC/C(=N\OCCN)c1ccc(C(F)(F)F)cc1 [Fluvoxamine] | Sparingly | – | – |
| CC(C)Cc1ccc(C(C)C(=O)O)cc1 (stereo not shown) [Ibuprofen] | Insoluble | – | – |
| O=[N+]([O-])O[C@H]1CO[C@H]2[C@@H]1OC[C@H]2O[N+](=O)[O-] [Isosorbide dinitrate] | Sparingly | Sparingly soluble | – |
| CC1=C(/C=C/C(C)=C/C=C/C(C)=C\C(=O)O)C(C)(C)CCC1 [Isotretinoin] | Insoluble | – | – |
| COC(=O)C1=C(C)NC(C)=C(C(=O)OC(C)C)C1c1cccc2nonc12 (stereo not shown) [Isradipine] | Insoluble | Insoluble | – |
| CC(=O)N1CCN(c2ccc(OCC3COC(Cn4ccnc4)(c4ccc(Cl)cc4Cl)O3)cc2)CC1 (stereo not shown) [Ketoconazole] | Insoluble | – | – |
| Cc1c(OCC(F)(F)F)ccnc1C[S+]([O-])c1nc2ccccc2[nH]1 (stereo not shown) [Lansoprazole] | Insoluble | – | – |
| CC[C@H](C)C(=O)O[C@H]1C[C@@H](C)C=C2C=C[C@H](C)[C@H](CC[C@@H]3C[C@@H](O)CC(=O)O3)[C@H]21 [Lovastatin] | Insoluble | Insoluble | – |
| Cc1cccc(Nc2ccccc2C(=O)O)c1C [Mefenamic acid] | Slightly | – | – |
| C[C@@H]1C[C@H]2[C@@H]3CCC4=CC(=O)C=C[C@]4(C)[C@@]3(Cl)[C@@H](O)C[C@]2(C)[C@@]1(O)C(=O)CCl [Mometasone] | Insoluble | – | – |
| COc1ccc2cc(CCC(C)=O)ccc2c1 [Nabumetone] | Insoluble | Insoluble | – |
| CO[C@]12C[C@@H](COC(=O)c3cncc(Br)c3)CN(C)[C@@H]1Cc1cn(C)c3cccc2c13 [Nicergoline] | Insoluble | – | – |
| COc1ccc2[nH]c([S+]([O-])Cc3ncc(C)c(OC)c3C)nc2c1 (stereo not shown) [Omeprazole] | Slightly | – | – |
| CC(=O)O[C@H]1C(=O)[C@@]2(C)[C@H]([C@H](OC(=O)c3ccccc3)[C@]3(O)C[C@H](OC(=O)[C@H](O)[C@@H](NC(=O)c4ccccc4)c4ccccc4)C(C)=C1C3(C)C)[C@]1(OC(C)=O)CO[C@@H]1C[C@@H]2O [Paclitaxel] | Insoluble | – | – |
| OCCN1CCN(CCCN2c3ccccc3Sc3ccc(Cl)cc32)CC1 [Perphenazine] | – | – | Bioavailability ([1]; in words): Low |
| O=C1NC(=O)C(c2ccccc2)(c2ccccc2)N1 [Phenytoin] | Insoluble | – | – |
| CN1C(C(=O)Nc2ccccn2)=C(O)c2ccccc2S1(=O)=O [Piroxicam] | Sparingly | – | – |
| CCOC(=O)[C@H](CCc1ccccc1)N[C@@H](C)C(=O)N1Cc2ccccc2C[C@H]1C(=O)O [Quinapril] | Insoluble | – | – |
| CCOC(=O)[C@H](CCc1ccccc1)N[C@@H](C)C(=O)N1[C@H](C(=O)O)C[C@@H]2CCC[C@@H]21 [Ramipril] | Insoluble | – | – |
| CN[C@H]1CC[C@@H](c2ccc(Cl)c(Cl)c2)c2ccccc21 [Sertraline] | Slightly | Slightly soluble | – |
| CC(=O)S[C@@H]1CC2=CC(=O)CC[C@]2(C)[C@H]2CC[C@@]3(C)[C@@H](CC[C@@]34CCC(=O)O4)[C@H]12 [Spironolactone] | – | Insoluble | – |
| CC(C)(C)c1ccc(C(O)CCCN2CCC(C(O)(c3ccccc3)c3ccccc3)CC2)cc1 (stereo not shown) [Terfenadine] | Slightly | – | – |
| C[C@]12CC[C@H]3[C@@H](CCC4=CC(=O)CC[C@@]43C)[C@@H]1CC[C@@H]2O [Testosterone] | – | Insoluble | Bioavailability ([1]; in words): Low |
| Cc1ccc(-c2nc3ccc(C)cn3c2CC(=O)N(C)C)cc1 [Zolpidem] | Sparingly | – | – |
